Our source for the IC50 values is US20250122174A1 (Shenzhen Yuanli Shenwan Innovative Medicine Co., Ltd., priority 2022, published 2025).

HPK1, sequence (Q92918 1-346 limits assumed): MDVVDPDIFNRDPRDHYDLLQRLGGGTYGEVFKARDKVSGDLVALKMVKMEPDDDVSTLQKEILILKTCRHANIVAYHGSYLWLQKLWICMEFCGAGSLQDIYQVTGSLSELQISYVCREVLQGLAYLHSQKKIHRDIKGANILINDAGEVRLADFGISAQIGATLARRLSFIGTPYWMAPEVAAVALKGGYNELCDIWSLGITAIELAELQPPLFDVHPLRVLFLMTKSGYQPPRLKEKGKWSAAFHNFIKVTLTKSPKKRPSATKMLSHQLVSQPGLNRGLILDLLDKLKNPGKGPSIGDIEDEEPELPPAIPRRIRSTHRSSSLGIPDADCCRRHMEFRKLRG

The assay addresses HPK1 (Homo sapiens (Human), UniProt Q92918). Put plainly: HPK1 Inhibition Assay (ADP-Glo kinase assay). The class given is biochemical. The note with it: ATP 10 μM. Summed up:
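ADP-Glo luminescence read-out after 1 h room-temperature kinase reaction with 10 μM ATP and 0.1 μg/ml MBP. Recombinant human HPK1 at 7.5 ng/μl; buffer 40 mM Tris pH 7.5, 20 mM MgCl2. Compounds serially diluted 5-fold over 10 points from 10 mM DMSO stock.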
A word on the IC50: it is the concentration that gives 50% inhibition. Compound `COc1cccc(F)c1-c1nc(C(=O)Nc2cc(F)ccc2N2C[C@@H]3C[C@H]2CN3)cs1` [Example 64, N-(2-((1S,4S)-2,5-diazabicyclo[2.2.1]heptan-2-yl)-5-fluorophenyl)-2-(2-fluoro-6-methoxyphenyl)thiazole-4-carboxamide] came in with an IC50 of 0.1 to 1 µM. The result for `COc1cccc(F)c1-n1nc(C(=O)Nc2ccc3c(nc(C)n3C)c2N2CC[C@H](N)C2)ccc1=O` [Example 66, (S)—N-(4-(3-aminopyrrolidin-1-yl)-1,2-dimethyl-1H-benzo[d]imidazol-5-yl)-1-(2-fluoro-6-methoxyphenyl)-6-oxo-1,6-dihydropyridazine-3-carboxamide] reads less than 0.1 µM; that for `Cc1nc2c(N3CCC[C@@H](N)C3)c(NC(=O)c3ccc(=O)n(-c4c(F)cccc4F)n3)ccc2n1C` [Example 67, (R)—N-(4-(3-aminopiperidin-1-yl)-1,2-dimethyl-1H-benzo[d]imidazol-5-yl)-1-(2,6-difluorophenyl)-6-oxo-1,6-dihydropyridazine-3-carboxamide], less than 0.1 µM; that for `Cc1nc2c(N3C[C@@H](N)C[C@H]3CO)c(NC(=O)c3ccc(=O)n(-c4c(F)cccc4F)n3)ccc2n1C` [Example 68, N-(4-((2S,4S)-4-amino-2-(hydroxymethyl)amidazole-1-yl)-1,2-dimethyl-1H-benzo[d]amidazole-5-yl)-1-(2,6-difluorophenyl)-6-oxo-1,6-dihydropyridazine-3-carboxamide], 0.1 to 1 µM. The result for `Cc1nc2c(N3CCN(C)CC3)c(NC(=O)c3ccc(=O)n(-c4c(F)cccc4F)n3)ccc2n1C` [Example 69, 1-(2,6-difluorophenyl)-N-(1,2-dimethyl-4-(4-methylpiperazin-1-yl)-1H-benzo[d]imidazol-5-yl)-6-oxo-1,6-dihydropyridazine-3-carboxamide] reads 0.1 to 1 µM; that for `Cc1nc2c(N(C)[C@@H]3CCCNC3)c(NC(=O)c3ccc(=O)n(-c4c(F)cccc4F)n3)ccc2n1C` [Example 70, (R)-1-(2,6-difluorophenyl)-N-(1,2-dimethyl-4-(methyl(piperidin-3-yl)amino)-1H-benzo[d]imidazol-5-yl)-6-oxo-1,6-dihydropyridazine-3-carboxamide], less than 0.1 µM.

In turn, `Cc1nc2c(N3CCNCC3)c(NC(=O)c3ccc(=O)n(-c4c(F)cccc4F)n3)ccc2n1C` [Example 71, 1-(2,6-difluorophenyl)-N-(1,2-dimethyl-4-(piperazin-1-yl)-1H-benzo[d]imidazol-5-yl)-6-oxo-1,6-dihydropyridazine-3-carboxamide] had an IC50 of less than 0.1 µM.

Compound `Cc1nc2c(N3CC[C@H](N)C3)c(NC(=O)c3ccc(=O)n(-c4c(F)cccc4F)n3)ccc2n1C` [Example 72, (S)-N-(4-(3-aminopyrrolidin-1-yl)-1,2-dimethyl-1H-benzo[d]imidazol-5-yl)-1-(2,6-difluorophenyl)-6-oxo-1,6-dihydropyridazine-3-carboxamide] displayed an IC50 of less than 0.1 µM. In the case of `Cc1nc2c(N3CC[C@@H](N)C3)c(NC(=O)c3ccc(=O)n(-c4c(F)cccc4F)n3)ccc2n1C` [Example 73, (R)-N-(4-(3-aminopyrrolidin-1-yl)-1,2-dimethyl-1H-benzo[d]imidazol-5-yl)-1-(2,6-difluorophenyl)-6-oxo-1,6-dihydropyridazine-3-carboxamide] it was less than 0.1 µM; in that of `Cc1nc2c(N3CCC(N)CC3)c(NC(=O)c3ccc(=O)n(-c4c(F)cccc4F)n3)ccc2n1C` [Example 74, N-(4-(4-aminopiperidin-1-yl)-1,2-dimethyl-1H-benzo[d] 98 midazole-5-yl)-1-(2,6-difluorophenyl)-6-oxo-1,6-dihydropyridazine-3-carboxamide], less than 0.1 µM; in that of `Cc1nc2c(N3CCC(C)(N)CC3)c(NC(=O)c3ccc(=O)n(-c4c(F)cccc4F)n3)ccc2n1C` [Example 76, N-(4-(4-amino-4-methylpiperidin-1-yl)-1,2-dimethyl-1H-benzo[d]imidazol-5-yl)-1-(2,6-difluorophenyl)-6-oxo-1,6-dihydropyridazine-3-carboxamide], less than 0.1 µM.

With `Cc1nc2c(N3CC[C@](C)(N)C3)c(NC(=O)c3ccc(=O)n(-c4c(F)cccc4F)n3)ccc2n1C` [Example 77, (S)-N-(4-(3-amino-3-methylpyrrolidin-1-yl)-1,2-dimethyl-1H-benzo[d]imidazol-5-yl)-1-(2,6-difluorophenyl)-6-oxo-1,6-dihydropyridazine-3-carboxamide], the IC50 is less than 0.1 µM. In the case of `Cc1nc2c(N3CCC4(CC3)CNC4)c(NC(=O)c3ccc(=O)n(-c4c(F)cccc4F)n3)ccc2n1C` [Example 78, 1-(2,6-difluorophenyl)-N-(1,2-dimethyl-4-(2,7-diazaspiro[3.5]nonan-7-yl)-1H-benzo[d]imidazol-5-yl)-6-oxo-1,6-dihydropyridazine-3-carboxamide] it was less than 0.1 µM; in that of `Cc1nc2c(N3CC4CNCC4C3)c(NC(=O)c3ccc(=O)n(-c4c(F)cccc4F)n3)ccc2n1C` (centres unmarked) [Example 79, 1-(2,6-difluorophenyl)-N-(4-(hexahydropyrrolo[3,4-c]pyrrol-2(1H)-yl)-1,2-dimethyl-1H-benzo[d]imidazol-5-yl)-6-oxo-1,6-dihydropyridazine-3-carboxamide], less than 0.1 µM; in that of `Cc1nc2c(N3C[C@H]4C[C@@H]3CN4)c(NC(=O)c3ccc(=O)n(-c4c(F)cccc4F)n3)ccc2n1C` [Example 80, N-(4-((1R,4R)-2,5-diazabicyclo[2.2.1]heptan-2-yl)-1,2-dimethyl-1H-benzo[d]imidazol-5-yl)-1-(2,6-difluorophenyl)-6-oxo-1,6-dihydropyridazine-3-carboxamide], less than 0.1 µM.

Compound `Cc1nc2c(N3CCNC4(CC4)C3)c(NC(=O)c3ccc(=O)n(-c4c(F)cccc4F)n3)ccc2n1C` [Example 81, 1-(2,6-difluorophenyl)-N-(1,2-dimethyl-4-(4,7-diazaspiro[2.5]octan-7-yl)-1H-benzo[d]imidazol-5-yl)-6-oxo-1,6-dihydropyridazine-3-carboxamide] had an IC50 of less than 0.1 µM.

`Cc1nc2c(N3CC[C@H](O)C3)c(NC(=O)c3ccc(=O)n(-c4c(F)cccc4F)n3)ccc2n1C` [Example 82, (S)-1-(2,6-difluorophenyl)-N-(4-(3-hydroxypyrrolidin-1-yl)-1,2-dimethyl-1H-benzo[d]imidazol-5-yl)-6-oxo-1,6-dihydropyridazine-3-carboxamide] yielded an IC50 of less than 0.1 µM. In the case of `Cc1nc2c(N3CCCC4(CNC4)C3)c(NC(=O)c3ccc(=O)n(-c4c(F)cccc4F)n3)ccc2n1C` [Example 84, 1-(2,6-difluorophenyl)-N-(1,2-dimethyl-4-(2,6-diazaspiro[3.5]nonan-6-yl)-1H-benzo[d]imidazol-5-yl)-6-oxo-1,6-dihydropyridazine-3-carboxamide], the IC50 was 0.1 to 1 µM.

With `Cc1nc2c(N3CCC4(CNC4)C3)c(NC(=O)c3ccc(=O)n(-c4c(F)cccc4F)n3)ccc2n1C` [Example 85, 1-(2,6-difluorophenyl)-N-(1,2-dimethyl-4-(2,6-diazaspiro[3.4]octan-6-yl)-1H-benzo[d]imidazol-5-yl)-6-oxo-1,6-dihydropyridazine-3-carboxamide], the IC50 is less than 0.1 µM.

Consider `Cc1nc2c(N(C)CC3CNC3)c(NC(=O)c3ccc(=O)n(-c4c(F)cccc4F)n3)ccc2n1C` [Example 86, N-(4-((azetidin-3-ylmethyl)(methyl)amino)-1,2-dimethyl-1H-benzo[d]imidazol-5-yl)-1-(2,6-difluorophenyl)-6-oxo-1,6-dihydropyridazine-3-carboxamide], for which the IC50 lay within 0.1 to 1 µM. In the case of `Cn1ncc2c(N3C[C@@H]4C[C@H]3CN4)c(NC(=O)c3ccc(=O)n(-c4c(F)cccc4F)n3)ccc21` [Example 87, N-(4-((1S,4S)-2,5-diazabicyclo[2.2.1]heptan-2-yl)-1-methyl-1H-indazol-5-yl)-1-(2,6-difluorophenyl)-6-oxo-1,6-dihydropyridazine-3-carboxamide] it was 0.1 to 1 µM; in that of `Cc1nc2c(N3CC[C@H](N)C3)c(NC(=O)c3ccc(=O)n(-c4c(F)cccc4F)n3)ccc2n1C1CCOCC1` [Example 88, (S)-N-(4-(3-aminopyrrolidin-1-yl)-2-methyl-1-(tetrahydro-2H-pyran-4-yl)-1H-benzo[d]imidazol-5-yl)-1-(2,6-difluorophenyl)-6-oxo-1,6-dihydropyridazine-3-carboxamide], less than 0.1 µM. Compound `COCCn1c(C)nc2c(N3CC[C@H](N)C3)c(NC(=O)c3ccc(=O)n(-c4c(F)cccc4F)n3)ccc21` [Example 89, (S)-N-(4-(3-aminopyrrolidin-1-yl)-1-(2-methoxyethyl)-2-methyl-1H-benzo[d]imidazol-5-yl)-1-(2,6-difluorophenyl)-6-oxo-1,6-dihydropyridazine-3-carboxamide] gave an IC50 of less than 0.1 µM.

The compound `Cc1nc2c(N3CC[C@@](C)(N)C3)c(NC(=O)c3ccc(=O)n(-c4c(F)cccc4F)n3)ccc2n1C` [Example 90, (R)-N-(4-(3-amino-3-methylpyrrolidin-1-yl)-1,2-dimethyl-1H-benzo[d]imidazol-5-yl)-1-(2,6-difluorophenyl)-6-oxo-1,6-dihydropyridazine-3-carboxamide] had a concentration for half-maximal inhibition (IC50) of less than 0.1 µM.

The compound `Cc1nc2c(N3C[C@H](N)C4(CC4)C3)c(NC(=O)c3ccc(=O)n(-c4c(F)cccc4F)n3)ccc2n1C` [Example 91, (R)-N-(4-(7-amino-5-azaspiro[2.4]heptan-5-yl)-1,2-dimethyl-1H-benzo[d]imidazol-5-yl)-1-(2,6-difluorophenyl)-6-oxo-1,6-dihydropyridazine-3-carboxamide] returned an IC50 of less than 0.1 µM. The result for `Cc1nc2c(N3CC[C@@H](NC(=O)CN)C3)c(NC(=O)c3ccc(=O)n(-c4c(F)cccc4F)n3)ccc2n1C` [Example 92, (R)-N-(4-(3-(2-aminoacetamido)pyrrolidin-1-yl)-1,2-dimethyl-1H-benzo[d]imidazol-5-yl)-1-(2,6-difluorophenyl)-6-oxo-1,6-dihydropyridazine-3-carboxamide] reads less than 0.1 µM.
